Results reported in patent publication US6437006B1, “Pharmaceutical carrier formulation” (American Cyanamid Company, priority 1999, dated 2002).

melting point: 141 to 143 °C
SMILES: Cc1ccn(-c2ccc(C(=O)N3Cc4cccn4Cc4ccccc43)c(Cl)c2)n1 [Isomer A]
